The values that follow come from US7598293B2, “Compounds and their use in medicine, process for their preparation and pharmaceutical compositions containing them” (Dr. Reddy's Laboratories, Inc., priority 2001, dated 2009).

The term melting point denotes the temperature, or range, at which the solid turns liquid.

Structures can show the parent of a compound that is named as a salt.

The target of one series is T1, hPPARα (Homo sapiens, UniProt Q07869).
T1 construct: expressed in transfected cells; host or cells: HEK-293
T1 sequence (Q07869 239-466 limits assumed): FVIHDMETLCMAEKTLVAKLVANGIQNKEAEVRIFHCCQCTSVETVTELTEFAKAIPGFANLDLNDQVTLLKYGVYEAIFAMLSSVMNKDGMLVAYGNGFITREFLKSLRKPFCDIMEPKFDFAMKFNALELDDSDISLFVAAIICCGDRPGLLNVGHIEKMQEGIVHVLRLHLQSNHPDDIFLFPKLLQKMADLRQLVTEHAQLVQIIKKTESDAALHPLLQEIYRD
The series is described as follows: Determination of hPPARα activity (GAL4 luciferase reporter, transfected HEK-293 cells). Type of series: cell-based. To be noted: compound concentration 50 μM. On the procedure:
a) Determination of hPPARα activity Ligand binding domain of hPPARα was fused to DNA binding domain of Yeast transcription factor Gal 4 in eucaryotic expression vector. Using superfect (Qiagen, Germany) as transfecting reagent HEK-293 cells are transfected with this plasmid and a reporter plasmid harboring the luciferase gene driven by a GAL4 specific promoter. Compound can be added at different concentrations after 42 hrs of transfection and incubated overnight. Luciferase activity as a function of compound binding/activation capacity of PPARα will be measured using Packard Luclite kit (Packard, USA) in Top Count (Ivan Sadowski, Brendan Bell, Peter Broag and Melvyn Hollis. Gene. 1992. 118: 137-141; Superfect Transfection Reagent Handbook. February 1997. Qiagen, Germany).

In a further series the target is T2, hPPARγ1 (Homo sapiens, UniProt P37231).
T2 construct: expressed in transfected cells; host or cells: HEK-293
T2 sequence (P37231 238-503 limits assumed): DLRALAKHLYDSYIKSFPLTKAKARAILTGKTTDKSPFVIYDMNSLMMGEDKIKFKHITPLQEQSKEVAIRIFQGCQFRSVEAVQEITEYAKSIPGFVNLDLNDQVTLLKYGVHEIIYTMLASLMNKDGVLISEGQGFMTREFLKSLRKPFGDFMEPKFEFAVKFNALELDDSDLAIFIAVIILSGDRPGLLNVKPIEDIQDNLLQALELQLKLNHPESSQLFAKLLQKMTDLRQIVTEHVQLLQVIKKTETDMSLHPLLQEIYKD
Kind of series: Determination of hPPARγ activity (GAL4 luciferase reporter, transfected HEK-293 cells). Type of series: cell-based. As to conditions: compound concentration 1 μM. On the procedure:
b) Determination of hPPARγ activity Ligand binding domain of hPPARγ1 is fused to DNA binding domain of Yeast transcription factor GAL4 in eucaryotic expression vector. Using lipofectamine (Gibco BRL, USA) as transfecting reagent HEK-293 cells are transfected with this plasmid and a reporter plasmid harboring the luciferase gene driven by a GAL4 specific promoter. Compound can be added at 1 μM concentration after 48 hrs of transfection and incubated overnight. Luciferase activity as a function of drug binding/activation capacity of PPARγ1 will be measured using Packard Luclite kit (Packard, USA) in Packard Top Count (Ivan Sadowski, Brendan Bell, Peter Broag and Melvyn Hollis. Gene. 1992. 118: 137-141; Guide to Eukaryotic Transfections with Cationic Lipid Reagents. Life Technologies, GIBCO BRL, USA).
(In general: Reporter assays use an easily measured gene product as a stand-in for the process of interest.)

In a further series the test system is C57BL/KsJ-db/db mice. The series is described as follows: Efficacy in genetic models: blood sugar and triglyceride lowering in db/db mice. Type of series: in vivo, mouse. As to conditions: 3 mg/kg oral, results after 6 days. The text has this:
a) Efficacy in Genetic Models Mutation in colonies of laboratory animals and different sensitivities to dietary regimens has made the development of animal models with non-insulin dependent diabetes and hyperlipidemia associated with obesity and insulin resistance possible. Genetic models such as db/db and ob/ob (Diabetes, (1982) 31(1): 1-6) mice and zucker fa/fa rats have been developed by the various laboratories for understanding the pathophysiology of disease and testing the efficacy of new antidiabetic compounds (Diabetes, (1983) 32: 830-838; Annu. Rep. Sankyo Res. Lab. (1994). 46: 1-57). The homozygous animals, C57 BL/KsJ-db/db mice developed by Jackson Laboratory, US, are obese, hyperglycemic, hyperinsulinemic and insulin resistant (J. Clin. Invest., (1990) 85: 962-967), whereas heterozygous are lean and normoglycemic. In db/db model, mouse progressively develops insulinopenia with age, a feature commonly observed in late stages of human type II diabetes when blood sugar levels are insufficiently controlled. The state of pancreas and its course vary according to the models. Since this model resembles that of type II diabetes mellitus, the compounds of the present invention will be tested for blood sugar and triglycerides lowering activities.
Male C57BL/KsJ-db/db mice of 8 to 14 weeks age, having body weight range of 35 to 60 grams, bred at Dr. Reddy's Research Foundation (DRF) animal house, were used in the experiment. The mice are provided with standard feed (National Institute of Nutrition (NIN), Hyderabad, India) and acidified water, ad libitum. The animals having more than 350 mg/dl blood sugar will be used for testing. The number of animals in each group will be 4.
Test compounds are suspended on 0.25% carboxymethyl cellulose and administered to test group at a dose of 0.1 mg to 30 mg/kg through oral gavage daily for 6 days. The control group receives vehicle (dose 10 ml/kg). On 6th day the blood samples will be collected one hour after administration of test compounds/vehicle for assessing the biological activity.
The random blood sugar and triglyceride levels can be measured by collecting blood (100 μl) through orbital sinus, using heparinised capillary in tubes containing EDTA which was centrifuged to obtain plasma. The plasma glucose and triglyceride levels can be measured spectrometrically, by glucose oxidase and glycerol-3-PO4 oxidase/peroxidase enzyme (Dr. Reddy's Lab. Diagnostic Division Kits, Hyderabad, India) methods respectively.
The blood sugar and triglycerides lowering activities of the test compound are calculated according to the formula.
(§1) 1. Percent reduction in Blood sugar/triglycerides/total cholesterol will be calculated according to the formula:
(§2) [formula] • OC=Zero day control group value • OT=Zero day treated group value • TC=Test day control group value • TT=Test day treated group value

Series [1] concerns hypercholesterolemic Sprague Dawley rats. The series is described as follows: Plasma triglyceride and cholesterol lowering activity in hypercholesterolemic rat models. In kind it is in vivo. To be noted: 1 mg/kg oral, results after 3 days. On the procedure:
b) Plasma triglyceride and Cholesterol lowering activity in hypercholesterolemic rat models Male Sprague Dawley rats (NIN stock) were bred in DRF animal house. Animals were maintained under 12 hour light and dark cycle at 25±1° C. Rats of 180-200 gram body weight range were used for the experiment. Animals are made hypercholesterolemic by feeding 2% cholesterol and 1% sodium cholate mixed with standard laboratory chow [National Institute of Nutrition (NIN), Hyderabad, India] for 6 days. Throughout the experimental period the animals were maintained on the same diet (Petit, D., Bonnefis, M. T., Rey, C and Infante, R. Effects of ciprofibrate on liver lipids and lipoprotein synthesis in normo- and hyperlipidemic rats. Atherosclerosis. 1988. 74: 215-225).
The test compounds can be administered orally at a dose 0.1 to 30 mg/kg/day for 3 days. Control group was treated with vehicle alone (0.25% Carboxymethylcellulose; dose 10 ml/kg).
The blood samples can be collected in fed state 1 hour after drug administration on 0 and 3 day of compound treatment. The blood can be collected from the retro-orbital sinus through heparinised capillary in EDTA containing tubes. After centrifugation, plasma sample will be separated for total cholesterol, HDL and triglyceride estimations. Measurement of plasma triglyceride, total cholesterol and HDL were done using commercial kits (Dr. Reddy's Laboratory, Diagnostic Division, India). LDL and VLDL cholesterol can be calculated from the data obtained for total cholesterol, HDL and triglyceride. The reductions of various parameters examined are calculated according to the formula.
as §1, §2
2. LDL and VLDL, cholesterol levels will be calculated according to the formula:
[formula] VLDL cholesterol in mg/dl=[Total cholesterol-HDL cholesterol-LDL cholesterol]mg/dl.

In the case of `CCOC(Cc1ccc(NCCCc2ccc(OS(C)(=O)=O)cc2)cc1)C(=O)O` (centres unmarked) [Example 15, 2-Ethoxy-3-[4-{3-(4-methanesulfonyloxyphenyl)propylamino}phenyl]propionic acid], the PPARα at hPPARα is 6.1. For the same molecule, on hPPARγ1, the PPARγ stood at 0.7. For `CCOC(Cc1cccc(NCCCc2ccc(OS(C)(=O)=O)cc2)c1)C(=O)O` (centres unmarked) [Example 39, 2-Ethoxy-3-[3-{3-(4-methanesulfonyloxyphenyl)propylamino}phenyl]propionic acid Arginine salt], in the series on C57BL/KsJ-db/db mice, the “Reduction in Blood Glucose Level (%)” value is on record as 56% and the “Triglyceride Lowering (%)” value was found to be 36%. For the molecule `CCOC(=O)[C@H](Cc1ccc(NC/C=C/c2ccc(OS(C)(=O)=O)cc2)cc1)OC` [Example 42, (S) Ethyl 2-methoxy-3-[4-{(E)-3-(4-methylsulfonyloxyphenyl)-2-propenylamino}phenyl]propionate], in the series on C57BL/KsJ-db/db mice, the “Reduction in Blood Glucose Level (%)” value was determined as 63% and the “Triglyceride Lowering (%)” value is given as 56%. In the case of `CC(C)OC(Cc1ccc(NCCCc2ccc(OS(C)(=O)=O)cc2)cc1)C(=O)O` (centres unmarked) (hydrate or solvate) [Example 21, 2-Isopropoxy-3-[4-{3-(4-methanesulfonyloxyphenyl)propylamino}phenyl]propionic acid], the melting point fell in the range of 143 to 145 °C. In the case of `CO[C@@H](Cc1ccc(NC/C=C/c2ccc(OS(C)(=O)=O)cc2)cc1)C(=O)O` [Example 43, (S)-2-Methoxy-3-[4-{(E)-3-(4-methylsulfonyloxyphenyl)-2-propenylamino}phenyl]propionic acid], in series [1], the “Increase in High Density Lipoprotein (%)” value stood at 77%, the “Reduction in Total Cholesterol (%)” value is reported as 53% and the “Triglyceride Lowering (%)” value was determined as 55%. For the same molecule, the “Reduction in Low Density Lipoprotein (%)” value in series [1] (LDL calculated from total cholesterol, HDL and triglyceride) is listed as 56%. With `CCOC(Cc1ccc(NCCCc2ccc(OS(C)(=O)=O)cc2)cc1)C(=O)O` (centres unmarked) (hydrate or solvate) [Example 15, 2-Ethoxy-3-[4-{3-(4-methanesulfonyloxyphenyl)propylamino}phenyl]propionic acid], the melting point was in the range of 120 to 122 °C. The same measure, in the same setting: to `CCOC(=O)C(Cc1ccc(NC(=O)CCc2ccc(OS(C)(=O)=O)cc2)cc1)OCC` (centres unmarked) [Example 33, Ethyl 2-ethoxy-3-[4-(4-methylsulfonyloxyphenethylcarboxamido)phenyl]-propionate] belongs 90 to 92 °C; to `CCOC(Cc1ccc(NC(=O)CCc2ccc(OS(C)(=O)=O)cc2)cc1)C(=O)O` (centres unmarked) [Example 34], 164 to 166 °C. For the molecule `CCOC(Cc1ccc(NC/C=C/c2ccc(OS(C)(=O)=O)cc2)cc1)C(=O)O` (stereo in doubt) [Example 25, (S)-2-Ethoxy-3-{4-[(E)-3-(4-methylsulfonyloxyphenyl)-2-prope-nylamino]phenyl}propionic acid], the melting point fell in the range of 156 to 158 °C. The molecule `CCOC(Cc1ccc(NC(=O)/C=C/c2ccc(OS(C)(=O)=O)cc2)cc1)C(=O)O` (centres unmarked) [Example 32, 2-Ethoxy-3-{4-[(E)-2-(4-methylsulfonyloxyvhenyl)-1-ethenylcarboxamido]-phenyl}propionic acid] returned a melting point of 178 to 180 °C. `CO[C@@H](Cc1ccc(NC/C=C/c2ccc(OS(C)(=O)=O)cc2)cc1)C(=O)O` (hydrate or solvate) [Example 43, (S)-2-Methoxy-3-[4-{(E)-3-(4-methylsulfonyloxyphenyl)-2-propenylamino}phenyl]propionic acid] displayed a melting point of 116 to 118 °C. `CO[C@@H](Cc1ccc(NCCCc2ccc(OS(C)(=O)=O)cc2)cc1)C(=O)O` [Example 14, (S)-2-Methoxy-3-[4-{3-(4-methanesulfonyloxyphenyl)propylamino}phenyl]propionic acid]: the melting point was 90 to 92 °C. The PPARα on hPPARα stood at 9.4. This molecule came in with a PPARγ on hPPARγ1 of 0.7. For the molecule `CCOC(Cc1ccc(NC/C=C/c2ccc(OS(C)(=O)=O)cc2)cc1)C(=O)O` (centres unmarked) [Example 27, 2-Ethoxy-3-{4-[(E)-3-(4-methylsulfonyloxyphenyl)-2-propenylamino]phenyl}propionic acid], the PPARα at hPPARα came to 8.5. Further, at hPPARγ1, the PPARγ amounted to 0.8. As for `CCOC(Cc1ccc(NCCCc2ccc(OS(=O)(=O)c3ccc(C)cc3)cc2)cc1)C(=O)O` (centres unmarked) (hydrate or solvate) [Example 19, 2-ethoxy-3-[4-{3-(4-(toluene-4-sulfonyloxy)phenyl)propylamino}phenyl]propionate], the melting point fell in the range of 98 to 100 °C.
